The source made the active and inactive calls. The rule behind the calls is not given here.
Legend:
Influenza B virus [1] = test: Antiviral activity against Influenza B virus B/Florida/4/2006 infected in MDCK cells assessed as protection against virus-induced cytopathic effect after 48 to 72 hrs by CellTiter 96 aqueous assay; type: functional, cell-based; conditions: B/Florida/4/2006, MDCK
MDCK = test: Cytotoxicity against MDCK cells at 100 uM; type: cell-based, Canis lupus familiaris; conditions: dog
[2] = Metabolic stability in dog whole blood at 5 uM; type: ADME, tissue-based, Canis lupus familiaris
[3] = Drug excretion in Sprague-Dawley rat feces at 5 mg/kg, po; type: ADME, organism-based; set-up: dose 5 mg/kg, route oral; conditions: faeces, read-out: Drug excretion
Blood [4] = test: Metabolic stability in human whole blood at 5 uM; type: ADME, tissue-based
Influenza A virus [5] = test: Antiviral activity against Influenza A virus A/CA/07/2009(H1N1) infected in BALB/c mouse assessed as protection against virus-induced body weight loss at 10 mg/kg/day, po bid for 5 days followed by viral infection at 4 hrs post first dose measured 2 to 14 days post infection; type: functional, organism-based; conditions: A/California/07/2009(H1N1)
Influenza A virus [6] = test: Antiviral activity against Influenza A virus A/WSN/1933(H1N1) infected in BALB/c mouse assessed as protection against virus-induced mortality at 10 mg/kg/day, po bid for 5 days followed by viral infection at 4 hrs post first dose measured 8 days post infection; type: functional, organism-based
[7] = Drug excretion in Sprague-Dawley rat urine at 5 mg/kg, po; type: ADME, organism-based; set-up: dose 5 mg/kg, route oral; conditions: read-out: Drug excretion
Influenza B virus [8] = test: Antiviral activity against Influenza B virus B/Sichuan/379/99 infected in MDCK cells assessed as protection against virus-induced cytopathic effect after 48 to 72 hrs by CellTiter 96 aqueous assay; type: functional, organism-based; conditions: B/Sichuan/379/99, MDCK
Influenza A virus [9] = test: Antiviral activity against Influenza A virus A/CA/07/2009(H1N1) infected in BALB/c mouse assessed as protection against virus-induced mortality at 0.1 mg/kg/day, po bid for 5 days followed by viral infection at 4 hrs post first dose measured after 2 to 14 days; type: functional, organism-based; conditions: A/California/07/2009(H1N1)
Liver microsomes [10] = test: Metabolic stability in human liver microsomes at 3 uM; type: ADME, Microsome
Influenza A virus [11] = test: Antiviral activity against Influenza A virus A/CA/07/2009(H1N1) infected in BALB/c mouse assessed as protection against virus-induced mortality at 1 mg/kg/day, po bid for 5 days followed by viral infection at 4 hrs post first dose measured on day 20 to day 21; type: functional, organism-based; conditions: A/California/07/2009(H1N1)
Influenza A virus [12] = test: Antiviral activity against Influenza A virus A/CA/07/2009(H1N1) infected in BALB/c mouse assessed as protection against virus-induced body weight loss at 1 mg/kg/day, po bid for 5 days followed by viral infection at 4 hrs post first dose measured 20 days post infection; type: functional, organism-based; conditions: A/California/07/2009(H1N1)
Liver = test: Metabolic stability in dog liver microsomes at 3 uM; type: ADME, Canis lupus familiaris, Microsome
Liver microsomes [13] = test: Metabolic stability in rat liver microsomes at 3 uM; type: ADME, Microsome
Influenza A virus [14] = test: Antiviral activity against Influenza A virus A/WSN/1933(H1N1) infected in BALB/c mouse assessed as protection against virus-induced body weight loss at 10 mg/kg/day, po bid for 5 days followed by viral infection at 4 hrs post first dose measured 8 days post infection; type: functional, organism-based
Influenza A virus [15] = test: Antiviral activity against Influenza A virus A/WSN/1933(H1N1) infected in BALB/c mouse assessed as protection against virus-induced mortality at 1 mg/kg/day, po bid for 5 days followed by viral infection at 4 hrs post first dose measured after 2 to 14 days; type: functional, organism-based
Neuraminidase = Neuraminidase (Influenza A virus, UniProt B4URF0)
Influenza A virus [16] = test: Antiviral activity against Influenza A virus A/CA/07/2009(H1N1) infected in BALB/c mouse assessed as protection against virus-induced body weight loss at 0.1 mg/kg/day, po bid for 5 days followed by viral infection at 4 hrs post first dose measured after 2 to 14 days; type: functional, organism-based; conditions: A/California/07/2009(H1N1)
Blood [17] = test: Metabolic stability in rat whole blood at 5 uM; type: ADME, tissue-based
Influenza A virus [18] = test: Antiviral activity against Influenza A virus A/Brisbane/10/2007(H3N2) infected in MDCK cells assessed as protection against virus-induced cytopathic effect after 48 to 72 hrs by CellTiter 96 aqueous assay; type: functional, organism-based
[19] = Drug metabolism in dog liver microsomes at 3 uM after 1 hr; type: ADME, Canis lupus familiaris, Microsome; conditions: read-out: Drug metabolism
[20] = Drug metabolism in human liver microsomes at 3 uM after 1 hr; type: ADME, Microsome; conditions: read-out: Drug metabolism
[21] = Drug metabolism in rat liver microsomes at 3 uM after 1 hr; type: ADME, Microsome; conditions: read-out: Drug metabolism
Mus musculus [22] = test: Acute toxicity in CD1 mouse assessed as convulsion at 300 to 2000 mg/kg, ip measured within 2 days; type: organism-based; set-up: dose 300-2000 mg/kg, route intraperitoneal; conditions: in vivo, 48 h
Mus musculus [23] = test: Acute toxicity in CD1 mouse assessed as piloerection at 300 to 2000 mg/kg, ip measured within 2 days; type: organism-based; set-up: dose 300-2000 mg/kg, route intraperitoneal; conditions: in vivo, 48 h
Mus musculus [24] = test: Acute toxicity in CD1 mouse assessed as hunched posture at 300 to 2000 mg/kg, ip measured within 2 days; type: organism-based; set-up: dose 300-2000 mg/kg, route intraperitoneal; conditions: in vivo, 48 h
Plasma = test: Plasma concentration in Sprague-Dawley rat at 1 mg/kg, po; type: ADME, organism-based; set-up: dose 1 mg/kg, route oral; conditions: in vivo, BLD = below limit of detection
Influenza A virus [25] = test: Antiviral activity against Influenza A virus A/WSN/1933(H1N1) infected in BALB/c mouse assessed as partial protection against virus-induced body weight loss at 0.1 mg/kg/day, po bid for 5 days followed by viral infection at 4 hrs post first dose measured 2 to 14 days post infection; type: functional, organism-based
Mus musculus [26] = test: Acute toxicity in CD1 mouse assessed as body jerks at 300 to 2000 mg/kg, ip measured within 2 days; type: organism-based; set-up: dose 300-2000 mg/kg, route intraperitoneal; conditions: in vivo, 48 h
Mus musculus [27] = test: Acute toxicity in CD1 mouse assessed as tremor at 300 to 2000 mg/kg, ip measured within 2 days; type: organism-based; set-up: dose 300-2000 mg/kg, route intraperitoneal; conditions: in vivo, 48 h
Mus musculus [28] = test: Acute toxicity in CD1 mouse assessed as lesions at 300 to 2000 mg/kg, ip after 15 days by necropsy analysis; type: organism-based; set-up: dose 300-2000 mg/kg, route intraperitoneal; conditions: in vivo, 360 h
Mus musculus [29] = test: Acute toxicity in CD1 mouse assessed as mortality at 2000 mg/kg, ip; type: organism-based; set-up: dose 2000 mg/kg, route intraperitoneal; conditions: in vivo
Influenza A virus [30] = test: Antiviral activity against Influenza A virus A/WSN/1933(H1N1) infected in BALB/c mouse assessed as partial protection against virus-induced mortality at 0.1 mg/kg/day, po bid for 5 days followed by viral infection at 4 hrs post first dose measured 2 to 14 days post infection; type: functional, organism-based
Mus musculus [31] = test: Acute toxicity in CD1 mouse assessed as hypoactivity at 300 to 2000 mg/kg, ip measured within 2 days; type: organism-based; set-up: dose 300-2000 mg/kg, route intraperitoneal; conditions: in vivo, 48 h
Mus musculus [32] = test: Acute toxicity in CD1 mouse assessed as tremor at 300 to 1000 mg/kg, iv measured within 2 days; type: organism-based; set-up: dose 300-1000 mg/kg, route intravenous; conditions: in vivo, 48 h
Mus musculus [33] = test: Acute toxicity in CD1 mouse assessed as hunched posture at 300 to 1000 mg/kg, iv measured within 2 days; type: organism-based; set-up: dose 300-1000 mg/kg, route intravenous; conditions: in vivo, 48 h
Mus musculus [34] = test: Acute toxicity in CD1 mouse assessed as mortality at 750 mg/kg, iv; type: organism-based; set-up: dose 750 mg/kg, route intravenous; conditions: in vivo
Mus musculus [35] = test: Acute toxicity in CD1 mouse assessed as body jerks at 300 to 1000 mg/kg, iv measured within 2 days; type: organism-based; set-up: dose 300-1000 mg/kg, route intravenous; conditions: in vivo, 48 h
Mus musculus [36] = test: Acute toxicity in CD1 mouse assessed as hypoactivity at 300 to 1000 mg/kg, iv measured within 2 days; type: organism-based; set-up: dose 300-1000 mg/kg, route intravenous; conditions: in vivo, 48 h
Mus musculus [37] = test: Acute toxicity in CD1 mouse assessed as convulsion at 300 to 1000 mg/kg, iv measured within 2 days; type: organism-based; set-up: dose 300-1000 mg/kg, route intravenous; conditions: in vivo, 48 h
Mus musculus [38] = test: Acute toxicity in CD1 mouse assessed as piloerection at 300 to 1000 mg/kg, iv measured within 2 days; type: organism-based; set-up: dose 300-1000 mg/kg, route intravenous; conditions: in vivo, 48 h
Mus musculus [39] = test: Acute toxicity in CD1 mouse assessed as lesions at 300 to 1000 mg/kg, iv after 15 days by necropsy analysis; type: organism-based; set-up: dose 300-1000 mg/kg, route intravenous; conditions: in vivo, 360 h
in vivo = conditions: Sprague-Dawley, rat, po, 10 mg/kg

Sequence of Neuraminidase (B4URF0 whole entry): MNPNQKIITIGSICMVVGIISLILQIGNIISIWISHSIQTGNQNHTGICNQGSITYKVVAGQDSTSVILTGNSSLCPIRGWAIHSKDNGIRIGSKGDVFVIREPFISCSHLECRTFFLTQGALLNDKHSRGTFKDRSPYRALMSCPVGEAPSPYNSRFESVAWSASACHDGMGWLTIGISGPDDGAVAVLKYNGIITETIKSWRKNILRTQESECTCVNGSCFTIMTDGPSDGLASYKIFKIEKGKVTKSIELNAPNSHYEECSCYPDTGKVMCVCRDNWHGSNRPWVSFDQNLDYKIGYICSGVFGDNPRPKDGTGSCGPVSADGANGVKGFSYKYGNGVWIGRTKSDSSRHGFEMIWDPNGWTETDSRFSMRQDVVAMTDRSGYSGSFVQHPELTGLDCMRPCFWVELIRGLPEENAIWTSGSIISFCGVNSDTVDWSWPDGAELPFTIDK

## CCC(CC)O[C@@H]1C=C(P(=O)(O)O)C[C@H](NC(=N)N)[C@H]1NC(C)=O
Influenza B virus [1]
  EC50: > 10 µM
MDCK
  Activity: Non-toxic
[2]
  Stability: Unstable
[3]
  dose excreted: 43.2%
Blood [4]
  Stability: Unstable
Influenza A virus [5]
  Activity: Active
Influenza A virus [6]
  Activity: Active
[7]
  dose excreted: 1.5%
Influenza B virus [8]
  EC50: > 10 µM
Influenza A virus [9]
  Activity: inactive
Liver microsomes [10]
  Stability: Unstable
Influenza A virus [11]
  Activity: inactive
Influenza A virus [12]
  Activity: inactive
Liver
  Stability: Unstable
Liver microsomes [13]
  Stability: Unstable
Influenza A virus [14]
  Activity: Active
Influenza A virus [15]
  Activity: Active
Neuraminidase
  IC50: 0.0003 µM
Influenza A virus [16]
  Activity: inactive
Blood [17]
  Stability: Unstable
Influenza A virus [18]
  EC50: > 10 µM

## CCOP(=O)(OCC)C1=C[C@@H](OC(CC)CC)[C@H](NC(C)=O)[C@@H](N)C1
Influenza A virus [6]
  Activity: inactive
Influenza A virus [14]
  Activity: inactive
Influenza A virus [15]
  Activity: Active

## Cc1ncc2n1-c1ccc(Cl)cc1C(c1ccccc1F)=NC2 [MIDAZOLAM]
[19]
  metabolised at 1 h, 3 µM: 65%
[20]
  metabolised at 1 h, 3 µM: 65%
[21]
  metabolised at 1 h, 3 µM: 65%

## CCOP(=O)(O)C1=C[C@@H](OC(CC)CC)[C@H](NC(C)=O)[C@@H](N)C1 [TAMIPHOSPHOR MONOETHYL ESTER]
Mus musculus [22]
  Activity: Non-toxic
MDCK
  Activity: Non-toxic
Mus musculus [23]
  Activity: Non-toxic
Mus musculus [24]
  Activity: Non-toxic
Plasma
  Cp: BLD
Influenza A virus [6]
  Activity: Active
Influenza A virus [25]
  Activity: Active
Mus musculus [26]
  Activity: Non-toxic
Mus musculus [27]
  Activity: Non-toxic
Mus musculus [28]
  Activity: Non-toxic
Influenza A virus [14]
  Activity: Active
Influenza A virus [15]
  Activity: Active
Mus musculus [29]
  Activity: Toxic
Influenza A virus [30]
  Activity: Active
Mus musculus [31]
  Activity: Non-toxic
Influenza A virus [18]
  EC50: > 10 µM

## CCOP(=O)(O)C1=C[C@@H](OC(CC)CC)[C@H](NC(C)=O)[C@@H](NC(=N)N)C1 [TAMIPHOSPHOR MONOETHYL ESTER]
Influenza A virus [5]
  Activity: Active
Influenza A virus [6]
  Activity: Active
Influenza A virus [9]
  Activity: inactive
Influenza A virus [11]
  Activity: inactive
Influenza A virus [12]
  Activity: inactive
Influenza A virus [25]
  Activity: Active
Influenza A virus [14]
  Activity: Active
Influenza A virus [15]
  Activity: Active
Influenza A virus [16]
  Activity: inactive
Influenza A virus [30]
  Activity: Active

## CCC(CC)O[C@@H]1C=C(P(=O)(O)O)C[C@H](N)[C@H]1NC(C)=O [TAMIPHOSPHOR]
MDCK
  Activity: Non-toxic
Mus musculus [32]
  Activity: Non-toxic
Influenza A virus [6]
  Activity: Active
Mus musculus [33]
  Activity: Non-toxic
Mus musculus [34]
  Activity: Toxic
Mus musculus [35]
  Activity: Non-toxic
Mus musculus [36]
  Activity: Non-toxic
Mus musculus [37]
  Activity: Non-toxic
Mus musculus [38]
  Activity: Non-toxic
Influenza A virus [14]
  Activity: Active
Influenza A virus [15]
  Activity: Active
Neuraminidase
  IC50: 0.0018 µM
Mus musculus [39]
  Activity: Non-toxic
Influenza A virus [18]
  EC50: > 10 µM

## C[C@]12CC[C@H]3[C@@H](CCC4=CC(=O)CC[C@@]43C)[C@@H]1CC[C@@H]2O [TESTOSTERONE]
[19]
  metabolised at 1 h, 3 µM: 65%
[20]
  metabolised at 1 h, 3 µM: 65%
[21]
  metabolised at 1 h, 3 µM: 65%

## CC(=O)N[C@H]1[C@H]([C@H](O)[C@H](O)CO)OC(C(=O)O)=C[C@@H]1N=C(N)N [ZANAMIVIR]
In vivo
  bioavailability: 3.7%

— ChEMBL document CHEMBL2203066 (J Med Chem, 2012)
